Assay results reported in patent US20060095979A1, “Transgenic mice containing CLCN4 chloride ion channel gene disruptions” (priority 2001, published 2006).

System: mouse
Assay: Metrazol Test (tail vein infusion, seizure susceptibility)
Format: in vivo
Settings: for Metrazol Dose Required for First Twitch: Dose at First Twitch: about 5 mg/ml infused through tail vein at about 0.375 ml/min
Experimental: A metrazol administration test can be used to screen animals for varying susceptibilities to seizures or similar events. For example, a 5 mg/ml solution of metrazol can be infused through the tail vein of a mouse at a rate of, e.g., approximately 0.375 ml/min. The infusion will cause all mice to experience seizures, followed by death. Those mice that enter the seizure stage the soonest are believed to be more prone to seizures.
To screen for phenotypes involving changes in seizure susceptibility, the Metrazol Test was be used. About 5 mg/ml of Metrazol was infused through the tail vein of the mouse at a constant rate of about 0.375 ml/min. The infusion caused all mice to experience seizures. Those mice who entered the seizure stage the quickest were thought to be more prone to seizures in general.
The Metrazol test can also be used to screen for phenotypes related to epilepsy. Seven to ten adult wild-type and homozygote males were used. A fresh solution of about 5 mg/ml pentylenetetrazole in approximately 0.9% NaCl was prepared prior to testing. Mice were weighed and loosely held in a restrainer. After exposure to a heat lamp to dilate the tail vein, mice were continuously infused with the pentylenetetrazole solution using a syringe pump set at a constant flow rate. The following stages were recorded: first twitch (sometimes accompanied by a squeak), beginning of the tonic/clonic seizure, tonic extension and survival time. The dose required for each phase was determined and the latency to each phase was determined between genotypes. Alterations in any stage may indicate an overall imbalance in excitatory or inhibitory neurotransmitter levels.

C1CCc2nnnn2CC1 [Metrazol, pentylenetetrazole]
dose of metrazol to induce the first twitch response, homozygous mutant (−/−) compared to wild-type (+/+) control mice (age- and gender-matched mice): higher dose | Metrazol Dose Required for First Twitch: Dose at First Twitch (homozygous mutant (−/−) CLCN4 male mice): 34.14 mg/kg | Metrazol Dose Required for First Twitch: Dose at First Twitch (wild-type (+/+) male mice): 28.06 mg/kg
